According to DBAASP:
Converted amounts (≈) assume the structure as drawn. Values belong to the compound of their own block, whether it stands above or below them.

Tests used:
Assay in all cases: ≥ marks a high value that may be exact or a test limit, other limits are often not marked, values filed in µg/mL are converted to µM
[1] = tested on: Pseudomonas aeruginosa ATCC 25619
[2] = tested on: Staphylococcus epidermidis NRS 101
[3] = tested on: Staphylococcus aureus NRS 19
[4] = tested on: Acinetobacter baumannii NR-13375
[5] = tested on: Pseudomonas aeruginosa 1125
[6] = tested on: Staphylococcus aureus ATCC 43300
[7] = tested on: Staphylococcus aureus VRSA1
[8] = tested on: Pseudomonas aeruginosa 1109
[9] = tested on: Pseudomonas aeruginosa ATCC 10145
[10] = tested on: Acinetobacter baumannii ATCC 19606
[11] = tested on: Pseudomonas aeruginosa ATCC BAA-1744
[12] = tested on: Pseudomonas aeruginosa 16011
[13] = tested on: Pseudomonas aeruginosa ATCC 27853
[14] = tested on: Staphylococcus aureus NRS 1
[15] = tested on: Acinetobacter baumannii NR-9667
[16] = tested on: Acinetobacter baumannii ATCC BAA-747
[17] = tested on: Staphylococcus aureus NRS 72
[18] = tested on: Pseudomonas aeruginosa ATCC 15442
[19] = tested on: Staphylococcus aureus ATCC 6538
[20] = tested on: Pseudomonas aeruginosa ATCC 35032
[21] = tested on: Staphylococcus aureus USA 200
[22] = tested on: Pseudomonas aeruginosa ATCC 9721
[23] = tested on: Staphylococcus aureus USA 100
[24] = tested on: Staphylococcus aureus RN4220
[25] = tested on: Staphylococcus aureus USA 300
[26] = tested on: Staphylococcus aureus ATCC BAA-44
[27] = tested on: Pseudomonas aeruginosa ATCC 9027
[28] = tested on: Pseudomonas aeruginosa 1017
[29] = tested on: Acinetobacter baumannii ATCC BAA-1605
Klebsiella pneumoniae = tested on: Klebsiella pneumoniae
Pseudomonas aeruginosa = tested on: Pseudomonas aeruginosa
Enterobacter cloacae = tested on: Enterobacter cloacae
Serratia marcescens = tested on: Serratia marcescens
Escherichia coli P4 = tested on: Escherichia coli P4
Klebsiella aerogenes = tested on: Klebsiella aerogenes
[30] = tested on: Staphylococcus aureus ATCC 29213
Escherichia coli = tested on: Escherichia coli
[31] = tested on: Escherichia coli ATCC 25922
[32] = tested on: Streptococcus pyogenes ATCC 12344
[33] = tested on: Salmonella typhimurium CMCC 50013
Streptococcus mutans = tested on: Streptococcus mutans
[34] = tested on: Shigella dysenteriae CMCC 51302
[35] = tested on: Listeria monocytogenes CMCC 54002
[36] = tested on: Listeria monocytogenes ATCC 35152
[37] = tested on: Klebsiella pneumoniae ATCC 13883
[38] = tested on: Staphylococcus aureus ATCC 25923
[39] = tested on: Pseudomonas aeruginosa ATCC 25668
[40] = tested on: Staphylococcus aureus ATCC 9144
[41] = tested on: Bacillus subtilis ATCC 6633
Acinetobacter sp. = tested on: Acinetobacter sp.

SMILES: CC[C@H](C)[C@H](NC(=O)[C@H](Cc1cnc[nH]1)NC(=O)[C@@H](NC(=O)[C@H](CCCN=C(N)N)NC(=O)[C@@H](N)C(C)C)[C@@H](C)CC)C(=O)N[C@@H](CO)C(=O)NCC(=O)N[C@@H](CO)C(=O)N[C@@H](CO)C(=O)N[C@@H](CC(C)C)C(=O)NCC(=O)N[C@@H](Cc1c[nH]c2ccccc12)C(=O)N[C@@H](CC(C)C)C(=O)N[C@H](C(=O)N[C@@H](CCC(N)=O)C(=O)N[C@@H](CC(C)C)C(=O)N[C@@H](Cc1ccccc1)C(=O)N[C@@H](CCCN=C(N)N)C(=O)N[C@@H](CCCCN)C(=O)N[C@@H](CCCN=C(N)N)C(=O)N[C@H](C(=O)N[C@@H](CCC(=O)O)C(=O)N[C@@H](CO)C(=O)N[C@@H](CC(C)C)C(=O)N[C@@H](CC(C)C)C(=O)N[C@@H](CCC(N)=O)C(=O)N[C@@H](CCCCN)C(=O)N[C@@H](CO)C(=O)O)[C@@H](C)CC)[C@@H](C)CC [VRIHISGSSLGWLIQLFRKRIESLLQKS]
MIC (Klebsiella pneumoniae): > 78.4 µM
MIC (Pseudomonas aeruginosa): > 78.4 µM
MIC (Enterobacter cloacae): ≥ 78.4 µM
MIC (Serratia marcescens): ≥ 157 µM
MIC (Escherichia coli P4): ≥ 55.4 µM
MIC (Klebsiella aerogenes): ≥ 78.4 µM
MIC [30]: 55.4 µM (≈ 181 µg/mL)
MIC (Escherichia coli): 78.4 µM (≈ 256 µg/mL)
MIC [31]: 55.4 µM (≈ 181 µg/mL)

SMILES: CC(C)C[C@H](NC(=O)CN)C(=O)N[C@@H](Cc1ccccc1)C(=O)N[C@@H](CCCN=C(N)N)C(=O)N[C@@H](C)C(=O)N[C@@H](CC(C)C)C(=O)N[C@@H](CC(C)C)C(=O)N[C@@H](CCCN=C(N)N)C(=O)N[C@@H](CC(C)C)C(=O)N[C@@H](CC(C)C)C(=O)N[C@@H](CCCN=C(N)N)C(=O)N[C@@H](CO)C(=O)N[C@@H](CC(C)C)C(=O)N[C@@H](Cc1c[nH]c2ccccc12)C(=O)N[C@@H](CCCN=C(N)N)C(=O)N[C@@H](CC(C)C)C(=O)N[C@@H](CC(C)C)C(=O)N[C@@H](CC(C)C)C(=O)N[C@@H](CCCN=C(N)N)C(=O)N[C@@H](C)C(=O)O [GLFRALLRLLRSLWRLLLRA]
MIC [32]: ≥ 64 µM
MIC [33]: ≥ 64 µM
MIC (Streptococcus mutans): ≥ 64 µM
MIC [34]: ≥ 64 µM
MIC [30]: > 64 µM
MIC [35]: ≥ 64 µM
MIC [31]: > 64 µM

SMILES: CC[C@H](C)[C@H](N)C(=O)N[C@@H](CCCCN)C(=O)N1CCC[C@H]1C(=O)N[C@@H](C)C(=O)NCC(=O)N[C@@H](CCCCN)C(=O)N[C@@H](CC(C)C)C(=O)N[C@@H](Cc1ccccc1)C(=O)N[C@@H](CCCCN)C(=O)N[C@@H](CC(C)C)C(=O)N[C@@H](Cc1ccccc1)C(=O)N[C@@H](CCCCN)C(N)=O [IKPAGKLFKLFK]
MIC [39]: ≥ 368 µM
MIC [40]: ≥ 368 µM
MIC [41]: ≥ 368 µM
MIC (Acinetobacter sp.): ≥ 46.1 µM
MIC (Escherichia coli): 368 µM (≈ 512 µg/mL)

Continued, values first:

MIC [1]: 8 µM (≈ 14.9 µg/mL)
MIC [2]: 2 µM (≈ 3.73 µg/mL)
MIC [3]: 4 µM (≈ 7.47 µg/mL)
MIC [4]: 2 µM (≈ 3.73 µg/mL)
MIC [5]: 8 µM (≈ 14.9 µg/mL)
MIC [6]: 4 µM (≈ 7.47 µg/mL)
MIC [7]: 4 µM (≈ 7.47 µg/mL)
MIC [8]: 4 µM (≈ 7.47 µg/mL)
MIC [9]: 8 µM (≈ 14.9 µg/mL)
MIC [10]: 2 µM (≈ 3.73 µg/mL)
MIC [11]: 8 µM (≈ 14.9 µg/mL)
MIC [12]: 16 µM (≈ 29.9 µg/mL)
MIC [13]: 8 µM (≈ 14.9 µg/mL)
MIC [14]: 2 µM (≈ 3.73 µg/mL)
MIC [15]: 4 µM (≈ 7.47 µg/mL)
MIC [16]: 2 µM (≈ 3.73 µg/mL)
MIC [17]: 4 µM (≈ 7.47 µg/mL)
MIC [18]: 8 µM (≈ 14.9 µg/mL)
MIC [19]: 2 µM (≈ 3.73 µg/mL)
MIC [20]: 8 µM (≈ 14.9 µg/mL)
MIC [21]: 4 µM (≈ 7.47 µg/mL)
MIC [22]: 8 µM (≈ 14.9 µg/mL)
MIC [23]: 2 µM (≈ 3.73 µg/mL)
MIC [24]: 4 µM (≈ 7.47 µg/mL)
MIC [25]: 4 µM (≈ 7.47 µg/mL)
MIC [26]: 4 µM (≈ 7.47 µg/mL)
MIC [27]: 4 µM (≈ 7.47 µg/mL)
MIC [28]: ≥ 32 µM
MIC [29]: 2 µM (≈ 3.73 µg/mL)
SMILES: CC[C@H](C)[C@H](NC(=O)[C@H](CCCN=C(N)N)NC(=O)[C@H](CCCN=C(N)N)NC(=O)[C@H](CC(C)C)NC(=O)[C@H](Cc1c[nH]c2ccccc12)NC(=O)[C@H](C)NC(=O)[C@H](CCCCN)NC(=O)[C@@H](NC(=O)[C@H](CCCN=C(N)N)NC(=O)[C@H](CCCN=C(N)N)NC(=O)[C@H](CC(C)C)NC(=O)[C@@H](N)Cc1c[nH]c2ccccc12)[C@@H](C)CC)C(=O)N[C@@H](CCCCN)C(=O)N[C@@H](C)C(=O)O [WLRRIKAWLRRIKA]

MIC [13]: 14.4 µM (≈ 20 µg/mL)
MIC [36]: 10.8 µM (≈ 15 µg/mL)
MIC [37]: 18 µM (≈ 25 µg/mL)
MIC [31]: 10.8 µM (≈ 15 µg/mL)
MIC [38]: 7.22 µM (≈ 9.99 µg/mL)
SMILES: CC(C)C[C@H](NC(=O)[C@H](CCCN=C(N)N)NC(=O)[C@H](CCCCN)NC(=O)[C@@H](N)Cc1c[nH]c2ccccc12)C(=O)N[C@H](C(=O)N[C@@H](C)C(=O)N[C@@H](C)C(=O)N[C@@H](CO)C(=O)N[C@@H](C)C(=O)N[C@@H](CCCCN)C(=O)N[C@@H](CCCCN)C(=O)N[C@@H](CCCCN)C(N)=O)C(C)C [WKRLVAASAKKK]
